Experiment [1] concerns the target Metabotropic glutamate receptor 6 (Homo sapiens) (UniProt O15303). Briefly: Antagonist activity at mGluR6 expressed in CHO cells assessed as inhibition of AP4-induced cAMP accumulation at 10 uM. The experiment is classed as functional, cell-based.
Experiment [2] addresses Metabotropic glutamate receptor 2 (Homo sapiens) (UniProt Q14416). Kind of experiment: Antagonist activity at mGluR2 expressed in CHO cells assessed as inhibition of glutamate-induced cAMP accumulation at 10 uM. It is filed as functional, cell-based.
Experiment [3] deals with Metabotropic glutamate receptor 1 (Homo sapiens) (UniProt Q13255). Briefly: Antagonist activity at mGluR1 expressed in CHO cells assessed as inhibition of glutamate stimulated phosphatidyl inositol hydrolysis at 10 uM. It is filed as functional, cell-based.
Experiment [4] deals with Metabotropic glutamate receptor 2 (Homo sapiens) (UniProt Q14416). Kind of experiment: Agonist activity at mGluR2 expressed in CHO cells assessed as decrease in cAMP accumulation at 10 uM. It is filed as functional, cell-based. Details: scale not given: the % may be the effect or the level left. On the technique in general: Cyclic AMP is a second messenger, typically raised through Gs and lowered through Gi signalling.

For experiment [5], the target named is Sodium-dependent serotonin transporter (Homo sapiens, UniProt P31645). The experiment is classed as cell membranes.
Experiment [6] addresses Metabotropic glutamate receptor 1 (Homo sapiens) (UniProt Q13255). Kind of experiment: Agonist activity at mGluR1 expressed in CHO cells assessed as stimulation of phosphatidyl inositol hydrolysis at 10 uM. The experiment is classed as functional, cell-based.
Experiment [7] concerns the target 5-hydroxytryptamine receptor 2A (Rattus norvegicus, UniProt P14842). Kind of experiment: Displacement of [3H]ketanserin from 5HT2A receptor in rat cortex membrane. The experiment is classed as cell membranes. A general note: Loss of bound radioactivity is the signal in a displacement assay; it reports binding, not function.
Experiment [8] addresses Metabotropic glutamate receptor 6 (Homo sapiens) (UniProt O15303). Briefly: Agonist activity at mGluR6 expressed in CHO cells assessed as decrease in cAMP accumulation at 10 uM. It is filed as functional, cell-based. Further details: scale not given: the % may be the effect or the level left.
Experiment [9] concerns the target T1, 5-hydroxytryptamine receptor 1A (Rattus norvegicus, UniProt P19327).
T1 sequence (P19327 whole entry): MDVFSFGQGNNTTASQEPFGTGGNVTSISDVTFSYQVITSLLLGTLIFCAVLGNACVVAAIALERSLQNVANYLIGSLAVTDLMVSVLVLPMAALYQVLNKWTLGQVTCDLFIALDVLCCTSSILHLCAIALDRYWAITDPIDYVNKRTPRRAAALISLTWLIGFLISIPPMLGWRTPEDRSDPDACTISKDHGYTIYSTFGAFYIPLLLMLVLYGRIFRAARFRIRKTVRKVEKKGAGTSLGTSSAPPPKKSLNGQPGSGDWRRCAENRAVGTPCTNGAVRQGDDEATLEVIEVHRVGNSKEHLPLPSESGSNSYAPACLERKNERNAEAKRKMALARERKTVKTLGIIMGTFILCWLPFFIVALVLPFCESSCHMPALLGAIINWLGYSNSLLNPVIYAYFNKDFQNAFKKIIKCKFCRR
Kind of experiment: Displacement of [3H]8-OH-DPAT from 5HT1A receptor in rat cortex membrane. It is filed as cell membranes.

In experiment [10] the target is Metabotropic glutamate receptor 6 (Homo sapiens) (UniProt O15303). Kind of experiment: Antagonist activity at mGluR6 expressed in CHO cells assessed as inhibition of forskolin stimulated cAMP accumulation at 10 uM. The experiment is classed as functional, cell-based.
Experiment [11] addresses Metabotropic glutamate receptor 2 (Homo sapiens) (UniProt Q14416). Briefly: Antagonist activity at mGluR2 expressed in CHO cells assessed as inhibition of forskolin stimulated cAMP accumulation at 10 uM. It is filed as functional, cell-based.

We go through four molecules from ChEMBL document CHEMBL1137549, “1-Aminocyclopentane-1,2,4-tricarboxylic acids screening on glutamatergic and serotonergic systems” (Bioorg Med Chem, 2007).

pKi: −log10 of the molar value. Activity calls are given as the source filed them. No cut-off for these calls is given here.

Chain of Sodium-dependent serotonin transporter (P31645 whole entry): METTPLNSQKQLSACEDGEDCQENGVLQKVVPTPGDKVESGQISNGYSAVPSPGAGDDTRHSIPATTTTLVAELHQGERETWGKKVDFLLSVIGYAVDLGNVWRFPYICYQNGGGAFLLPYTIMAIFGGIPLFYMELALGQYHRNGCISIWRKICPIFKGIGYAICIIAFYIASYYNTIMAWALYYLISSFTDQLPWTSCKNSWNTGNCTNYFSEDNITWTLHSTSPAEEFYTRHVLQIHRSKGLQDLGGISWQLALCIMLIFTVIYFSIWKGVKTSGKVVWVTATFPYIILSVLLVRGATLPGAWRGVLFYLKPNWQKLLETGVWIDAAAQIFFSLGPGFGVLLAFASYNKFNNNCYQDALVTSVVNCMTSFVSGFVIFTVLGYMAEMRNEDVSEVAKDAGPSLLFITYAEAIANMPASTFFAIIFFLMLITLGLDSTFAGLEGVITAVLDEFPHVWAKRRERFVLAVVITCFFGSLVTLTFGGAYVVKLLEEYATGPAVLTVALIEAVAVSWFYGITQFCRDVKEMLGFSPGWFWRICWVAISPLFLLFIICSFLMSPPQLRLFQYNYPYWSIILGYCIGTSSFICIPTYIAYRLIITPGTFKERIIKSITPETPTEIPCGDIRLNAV
Chain of Metabotropic glutamate receptor 1 (Homo sapiens) (Q13255 19-1194 limits assumed): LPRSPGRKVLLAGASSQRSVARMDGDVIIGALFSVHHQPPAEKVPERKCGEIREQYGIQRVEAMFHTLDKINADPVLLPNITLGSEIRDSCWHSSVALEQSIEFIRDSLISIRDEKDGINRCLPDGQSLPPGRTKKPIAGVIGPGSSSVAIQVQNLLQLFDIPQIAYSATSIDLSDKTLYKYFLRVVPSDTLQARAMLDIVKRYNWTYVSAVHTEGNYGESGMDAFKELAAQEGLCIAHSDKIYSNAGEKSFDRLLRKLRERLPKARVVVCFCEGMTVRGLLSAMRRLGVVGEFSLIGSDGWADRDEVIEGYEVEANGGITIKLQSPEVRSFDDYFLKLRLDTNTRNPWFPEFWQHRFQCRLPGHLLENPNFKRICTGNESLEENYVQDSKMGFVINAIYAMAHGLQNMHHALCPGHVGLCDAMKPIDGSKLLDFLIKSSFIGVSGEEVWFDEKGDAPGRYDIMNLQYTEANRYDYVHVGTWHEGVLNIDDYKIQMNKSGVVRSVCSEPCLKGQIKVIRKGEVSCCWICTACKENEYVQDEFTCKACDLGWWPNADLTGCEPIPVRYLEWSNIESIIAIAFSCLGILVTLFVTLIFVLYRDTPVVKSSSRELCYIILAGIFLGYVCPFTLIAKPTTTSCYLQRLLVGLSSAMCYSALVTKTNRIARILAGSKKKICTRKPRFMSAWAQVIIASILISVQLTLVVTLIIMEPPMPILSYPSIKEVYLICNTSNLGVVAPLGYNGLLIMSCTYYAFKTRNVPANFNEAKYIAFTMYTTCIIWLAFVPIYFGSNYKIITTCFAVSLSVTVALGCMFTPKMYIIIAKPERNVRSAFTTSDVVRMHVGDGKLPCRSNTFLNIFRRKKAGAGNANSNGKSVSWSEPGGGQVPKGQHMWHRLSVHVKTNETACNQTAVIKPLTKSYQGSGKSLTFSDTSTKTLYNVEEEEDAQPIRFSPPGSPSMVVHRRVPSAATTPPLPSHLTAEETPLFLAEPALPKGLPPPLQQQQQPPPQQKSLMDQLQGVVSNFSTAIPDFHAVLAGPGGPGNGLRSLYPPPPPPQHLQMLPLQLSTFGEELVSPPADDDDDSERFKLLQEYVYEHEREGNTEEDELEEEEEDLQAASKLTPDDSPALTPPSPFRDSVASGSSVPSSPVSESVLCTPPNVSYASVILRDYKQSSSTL
Chain of Metabotropic glutamate receptor 6 (Homo sapiens) (O15303 whole entry): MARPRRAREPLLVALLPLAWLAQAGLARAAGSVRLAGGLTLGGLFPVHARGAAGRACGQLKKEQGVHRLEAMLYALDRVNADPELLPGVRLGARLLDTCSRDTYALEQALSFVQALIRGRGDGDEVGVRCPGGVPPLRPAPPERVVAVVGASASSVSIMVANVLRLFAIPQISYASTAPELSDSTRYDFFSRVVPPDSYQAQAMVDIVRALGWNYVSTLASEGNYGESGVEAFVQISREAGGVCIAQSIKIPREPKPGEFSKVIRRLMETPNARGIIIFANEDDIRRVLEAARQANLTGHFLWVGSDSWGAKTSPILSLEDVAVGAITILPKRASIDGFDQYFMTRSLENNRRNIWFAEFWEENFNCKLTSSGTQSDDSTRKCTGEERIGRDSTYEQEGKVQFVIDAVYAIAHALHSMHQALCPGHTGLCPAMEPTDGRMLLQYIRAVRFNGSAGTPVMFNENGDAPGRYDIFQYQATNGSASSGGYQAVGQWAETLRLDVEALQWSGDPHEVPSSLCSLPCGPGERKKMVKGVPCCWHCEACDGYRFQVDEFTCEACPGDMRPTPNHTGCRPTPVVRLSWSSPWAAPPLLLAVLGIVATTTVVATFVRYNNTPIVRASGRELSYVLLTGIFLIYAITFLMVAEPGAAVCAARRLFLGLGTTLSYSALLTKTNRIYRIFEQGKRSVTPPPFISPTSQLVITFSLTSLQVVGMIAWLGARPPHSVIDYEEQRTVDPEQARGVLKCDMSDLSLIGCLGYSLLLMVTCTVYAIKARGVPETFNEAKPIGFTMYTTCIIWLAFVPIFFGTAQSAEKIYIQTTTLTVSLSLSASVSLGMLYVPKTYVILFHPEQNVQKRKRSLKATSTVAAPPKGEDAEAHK
Chain of 5-hydroxytryptamine receptor 2A (P14842 whole entry): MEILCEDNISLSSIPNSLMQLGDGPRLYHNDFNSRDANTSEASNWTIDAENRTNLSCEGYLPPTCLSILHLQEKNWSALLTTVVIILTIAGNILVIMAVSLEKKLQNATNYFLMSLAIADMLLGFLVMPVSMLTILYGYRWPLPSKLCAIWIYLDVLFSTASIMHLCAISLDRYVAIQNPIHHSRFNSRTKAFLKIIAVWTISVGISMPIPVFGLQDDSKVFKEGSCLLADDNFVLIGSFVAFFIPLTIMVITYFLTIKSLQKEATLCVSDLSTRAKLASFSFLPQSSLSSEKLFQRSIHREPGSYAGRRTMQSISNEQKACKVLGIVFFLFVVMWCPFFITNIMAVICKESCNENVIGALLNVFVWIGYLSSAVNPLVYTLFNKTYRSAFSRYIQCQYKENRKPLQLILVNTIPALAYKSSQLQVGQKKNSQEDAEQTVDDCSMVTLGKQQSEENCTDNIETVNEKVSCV
Chain of Metabotropic glutamate receptor 2 (Homo sapiens) (Q14416 19-872 limits assumed): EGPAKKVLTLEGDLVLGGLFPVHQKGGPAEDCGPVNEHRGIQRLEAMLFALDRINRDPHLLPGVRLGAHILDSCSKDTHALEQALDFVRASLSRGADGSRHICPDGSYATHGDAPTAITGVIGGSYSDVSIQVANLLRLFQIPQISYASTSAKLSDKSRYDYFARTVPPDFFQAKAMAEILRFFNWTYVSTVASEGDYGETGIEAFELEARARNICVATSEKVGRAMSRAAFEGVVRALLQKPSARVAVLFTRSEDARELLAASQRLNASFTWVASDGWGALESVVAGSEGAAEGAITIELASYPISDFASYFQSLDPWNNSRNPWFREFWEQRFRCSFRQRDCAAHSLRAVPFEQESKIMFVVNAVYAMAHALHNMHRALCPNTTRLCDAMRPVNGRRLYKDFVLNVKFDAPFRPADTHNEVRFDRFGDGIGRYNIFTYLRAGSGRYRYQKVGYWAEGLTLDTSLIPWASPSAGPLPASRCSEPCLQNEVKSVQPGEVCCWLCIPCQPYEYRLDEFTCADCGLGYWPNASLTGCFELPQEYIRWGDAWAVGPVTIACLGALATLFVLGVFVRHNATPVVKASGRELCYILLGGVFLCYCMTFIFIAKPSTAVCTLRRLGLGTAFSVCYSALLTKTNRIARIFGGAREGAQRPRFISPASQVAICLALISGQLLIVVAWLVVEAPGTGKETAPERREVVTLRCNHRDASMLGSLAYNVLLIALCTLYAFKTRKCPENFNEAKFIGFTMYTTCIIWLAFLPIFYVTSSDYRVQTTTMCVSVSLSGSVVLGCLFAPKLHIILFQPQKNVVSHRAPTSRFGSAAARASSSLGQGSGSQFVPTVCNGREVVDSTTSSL

In the case of `N[C@@]1(C(=O)O)C[C@@H](C(=O)O)C[C@H]1C(=O)O`, the outcome in experiment [1], in [2], in experiment [3] and in experiment [6] was inactive. The Activity in [4] and in experiment [8] was 30% each time. The negative logarithm of the Ki (pKi) in experiment [5], in experiment [7] and in [9] was less than 4.30 throughout.
For `N[C@]1(C(=O)O)C[C@H](C(=O)O)C[C@@H]1C(=O)O`, the result in [1], in [10], in [2], in experiment [3], in experiment [4] and in experiment [6] was inactive. The outcome in experiment [8] and in [11] was inactive. For the same molecule, the pKi in [5], in experiment [7] and in experiment [9] was less than 4.30 throughout.
As to `N[C@@]1(C(=O)O)C[C@H](C(=O)O)C[C@@H]1C(=O)O`, the outcome in [1], in experiment [10], in experiment [2], in [3], in experiment [4] and in experiment [6] was inactive. The outcome in experiment [8] and in experiment [11] was inactive. Besides, the pKi in [5], in experiment [7] and in experiment [9] was less than 4.30 each time.
In the case of `N[C@]1(C(=O)O)C[C@@H](C(=O)O)C[C@H]1C(=O)O`, the result in experiment [1], in experiment [10], in [2], in experiment [3], in experiment [4] and in experiment [6] was inactive. In addition, the result in [8] and in experiment [11] was inactive. Moreover, the negative-log Ki (pKi) in [5] was 5.00; in [7] it was less than 4.30; in experiment [9], less than 4.30.

Broadly, the pKi is −log10 of the Ki, conventionally taken in molar units.
